Values of other authors as cited in patent publication US20080286370A1, “Nanoscale Particles Used as Contrasting Agents in Magnetic Resonance Imaging” (priority 2005, published 2008).

Tests used:
[1] = human, in vivo
[2] = copper or zinc
[3] = in vivo

For `O=C([O-])CN1CCN(CC(=O)[O-])CCN(CC(=O)O)CCN(CC(=O)[O-])CC1.[Gd+3]` [Gd-DOTA, gadoteric acid], the “adverse effect on vital parameters or renal function” value [1] is given as “absolutely no adverse effect”, the “patients who suffered from nausea” value [1] is given as 8 and the “patients who suffered from vomiting” value [1] is given as 5. The pseudohypocalcaemia [1] was “has not caused pseudohypocalcaemia”, the side-effect rate [1] was 0.84-0.97% and the systemic osmolality effects [1] was “negligible”. For the same molecule, the “temperature, headaches, an unwell feeling, skin rash and an unpleasant taste in the mouth” value [1] was “less than 0.15%”, the “total rate of nausea and vomiting” value [1] was 0.31% and the “exchange of gadolinium with endogenic metal ions” value [2] was “less than 1%”. The eliminated [3] was 75% and the “passage through the blood/brain barrier” value [3] was “do not pass through the blood/brain barrier”.
